Earlier results, collected in PMC9610729, “Anticholinesterase Activity of Selected Medicinal Plants from Navarra Region of Spain and a Detailed Phytochemical Investigation of Origanum vulgare L. ssp. vulgare” (Molecules, 2022).
Like-named read-outs stand apart in the source and are kept apart here.

Key:
AChE [1] = tested on: AChE
AChE [2] = tested on: AChE; parameters: method as in PMID 35745206

Row | SMILES | AChE inhibition (AChE [1]) | AChE inhibition (AChE [2])
1 | O=c1c(O)c(-c2ccc(O)cc2)oc2cc(O)cc(O)c12 [kaempferol] | efficient AChE inhibitors | –
2 | O=c1cc(-c2ccc(O)c(O)c2)oc2cc(O)cc(O)c12 [luteolin] | to a lesser extent | –
3 | COC(=O)c1cc(OC)c(O)c(OC)c1 [methyl syringinate] | – | best properties
4 | COc1cc(C(=O)O)cc(OC)c1O [Compound 7, Syringic acid] | – | high inhibition percentage
5 | O=c1c(O)c(-c2ccc(O)c(O)c2)oc2cc(O)cc(O)c12 [quercetin] | efficient AChE inhibitors | –
